PMC11859928, “Design, Synthesis, and Antiproliferative Activity of Novel Indole/1,2,4-Triazole Hybrids as Tubulin Polymerization Inhibitors” (Pharmaceuticals, 2025)
Like-named read-outs stand apart in the source and are kept apart here.

Assays:
SNB-19 = assay: NCI five-dose assay; format: cell-based, human; details: SNB-19, five dose levels
SNB-75 = assay: NCI five-dose assay; format: cell-based, human; details: SNB-75, five dose levels
IGROV1 = assay: NCI five-dose assay; format: cell-based, human; details: IGROV1, five dose levels
EKVX = assay: NCI five-dose assay; format: cell-based, human; details: five dose levels
K-562 = assay: NCI five-dose assay; format: cell-based, human; details: Homo sapiens, K562, K-562, five dose levels
OVCAR-4 = assay: NCI five-dose assay; format: cell-based, human; details: OVCAR-4, five dose levels
HT29 = assay: NCI five-dose assay; format: cell-based, human; details: HT29, five dose levels
[1] = test system: panel of 60 human tumor cell lines; assay: NCI five-dose assay, full panel; format: cell-based
MALME-3M = assay: NCI five-dose assay; format: cell-based, human; details: five dose levels
SW-620 = assay: NCI five-dose assay; format: cell-based, human; details: SW-620, five dose levels
HCT-116 = assay: NCI five-dose assay; format: cell-based, human; details: HCT-116, five dose levels
UO-31 = assay: NCI five-dose assay; format: cell-based, human; details: UO-31, five dose levels
SN12C = assay: NCI five-dose assay; format: cell-based, human; details: five dose levels
MOLT-4 = assay: NCI five-dose assay; format: cell-based, human; details: MOLT-4, five dose levels
DU-145 = assay: NCI five-dose assay; format: cell-based, human; details: DU-145, five dose levels
RXF393 = assay: NCI five-dose assay; format: cell-based, human; details: RXF393, five dose levels
TK-10 = assay: NCI five-dose assay; format: cell-based, human; details: TK-10, five dose levels
A498 = assay: NCI five-dose assay; format: cell-based, human; details: A498, five dose levels
A549/ATCC = assay: NCI five-dose assay; format: cell-based, human; details: five dose levels
SF-268 = assay: NCI five-dose assay; format: cell-based, human; details: SF-268, five dose levels
SK-MEL-28 = assay: NCI five-dose assay; format: cell-based, human; details: SK-MEL-28, five dose levels
Leukemia subpanel = assay: NCI five-dose assay, subpanel mean; format: cell-based, human
CCRF-CEM = assay: NCI five-dose assay; format: cell-based, human; details: Homo sapiens, five dose levels
RPMI-8226 = assay: NCI five-dose assay; format: cell-based, human; details: RPMI-8226, five dose levels
MDA-MB-435 = assay: NCI five-dose assay; format: cell-based, human; details: MDA-MB-435, five dose levels
UACC-62 = assay: NCI five-dose assay; format: cell-based, human; details: UACC-62, five dose levels
HOP-62 = assay: NCI five-dose assay; format: cell-based, human; details: HOP-62, five dose levels
[2] = Homo sapiens, read-out: GI50 Conc. per Cell Lines
[3] = Homo sapiens, read-out: LC50 (the source's name)
[4] = read-out: GI50 Conc. per Cell Lines
[5] = read-out: LC50 (the source's name)

O/N=C(\CSc1nnc(-c2c[nH]c3ccccc23)n1-c1ccccc1)c1ccc(Cl)cc1 [Compound 7j, (Z)-2-((5-(1H-Indol-3-yl)-4-phenyl-4H-1,2,4-triazol-3-yl)thio)-1-(4-chlorophenyl) Ethanone Oxime]
GI50 (SNB-19; [2]): 6.89 µM
CC50 (SNB-19; [3]): > 100 µM
TGI Conc. per Cell Lines (SNB-19): 45.2 µM
GI50 (SNB-75; [2]): 1.68 µM
CC50 (SNB-75; [3]): > 100 µM
TGI Conc. per Cell Lines (SNB-75): 5.80 µM
GI50 (IGROV1; Homo sapiens, IGROV-1, read-out: GI50 Conc. per Cell Lines): 5.35 µM
CC50 (IGROV1; Homo sapiens, IGROV-1, read-out: LC50 (the source's name)): > 100 µM
TGI Conc. per Cell Lines (IGROV1): 19.8 µM
GI50 (EKVX; [2]): 3.21 µM
CC50 (EKVX; [3]): > 100 µM
TGI Conc. per Cell Lines (EKVX): 19.2 µM
GI50 (K-562; [4]): 2.55 µM
CC50 (K-562; [5]): > 100 µM
LC50 (OVCAR-4; Homo sapiens): > 100 µM
GI50 (OVCAR-4; [2]): 1.96 µM
TGI Conc. per Cell Lines (OVCAR-4): 4.32 µM
TGI Conc. per Cell Lines (HT29): 11.8 µM
GI50 (HT29; Homo sapiens, HT-29, read-out: GI50 Conc. per Cell Lines): 3.04 µM
CC50 (HT29; Homo sapiens, HT-29, read-out: LC50 (the source's name)): > 100 µM
GI50 ([1]; average sensitivity of all cell lines, read-out: GI50 MID a): 3.65 µM
GI50 ([1]; most of the tested cell lines across nine subpanels, read-out: GI50 values, range across nine subpanels): 2.45 to 5.23 µM
GI50 (MALME-3M; [2]): 4.99 µM
CC50 (MALME-3M; [3]): > 100 µM
TGI Conc. per Cell Lines (MALME-3M): 27.5 µM
GI50 (SW-620; [2]): 3.08 µM
CC50 (SW-620; [3]): 83.2 µM
TGI Conc. per Cell Lines (SW-620): 16.1 µM
TGI Conc. per Cell Lines (HCT-116): 13.7 µM
GI50 (HCT-116; [2]): 2.92 µM
CC50 (HCT-116; [3]): > 100 µM
GI50 (UO-31; [2]): 2.88 µM
CC50 (UO-31; [3]): 71.1 µM
TGI Conc. per Cell Lines (UO-31): 15.7 µM
GI50 (SN12C; [2]): 3.79 µM
CC50 (SN12C; [3]): > 100 µM
TGI Conc. per Cell Lines (SN12C): 16.3 µM
GI50 (MOLT-4; [2]): 2.16 µM
CC50 (MOLT-4; [3]): > 100 µM
TGI Conc. per Cell Lines (MOLT-4): 5.69 µM
TGI Conc. per Cell Lines (DU-145): 6.32 µM
GI50 (DU-145; [2]): 2.59 µM
CC50 (DU-145; [3]): > 100 µM
LC50 (concentration killing 50% of cells) (RXF393; Homo sapiens, RXF 393): 46.3 µM
GI50 (RXF393; Homo sapiens, RXF 393, read-out: GI50 Conc. per Cell Lines): 2.22 µM
TGI Conc. per Cell Lines (RXF393): 6.29 µM
GI50 (TK-10; [2]): 3.7 µM
CC50 (TK-10; [3]): > 100 µM
TGI Conc. per Cell Lines (TK-10): 17.7 µM
TGI Conc. per Cell Lines (A498): 65.8 µM
LC50 (A498; Homo sapiens): 88.6 µM
GI50 (A498; [2]): 15.4 µM
GI50 (A549/ATCC; [2]): 3.35 µM
CC50 (A549/ATCC; [3]): > 100 µM
TGI Conc. per Cell Lines (A549/ATCC): 16.8 µM
GI50 (SF-268; [2]): 2.11 µM
CC50 (SF-268; [3]): > 100 µM
TGI Conc. per Cell Lines (SF-268): 5.08 µM
GI50 (SK-MEL-28; [2]): 4.41 µM
CC50 (SK-MEL-28; [3]): 57.7 µM
TGI Conc. per Cell Lines (SK-MEL-28): >100 µM
GI50 (Leukemia subpanel; Homo sapiens, Leukemia, average sensitivity of all cell lines of the subpanel, read-out: GI50 Subpanel MID b): 2.8 µM
GI50 Selectivity Ratio (MID a/MID b) (Leukemia subpanel; Leukemia subpanel): 1.30
GI50 (CCRF-CEM; [4]): 2.85 µM
CC50 (CCRF-CEM; [5]): > 100 µM
GI50 (RPMI-8226; [2]): 2.38 µM
CC50 (RPMI-8226; [3]): > 100 µM
TGI Conc. per Cell Lines (RPMI-8226): 7.29 µM
GI50 (MDA-MB-435; [2]): 1.74 µM
CC50 (MDA-MB-435; [3]): 60.5 µM
TGI Conc. per Cell Lines (MDA-MB-435): 3.41 µM
GI50 (UACC-62; [2]): 2.62 µM
CC50 (UACC-62; [3]): > 100 µM
TGI Conc. per Cell Lines (UACC-62): 10.1 µM
TGI Conc. per Cell Lines (HOP-62): 3.65 µM
GI50 (HOP-62; [2]): 1.74 µM
